The record followed here is ChEMBL document CHEMBL4428095, “Evolution of physicochemical properties of melanin concentrating hormone receptor 1 (MCHr1) antagonists” (Bioorg Med Chem Lett, 2016).

Data set [1] can be described thus: Protein binding in rat serum. Type of data set: ADME, cell-free.
Data set [2] can be described thus: Protein binding in human serum. Type of data set: ADME, cell-free. Conditions: read-out: PB (converted).
Data set [3] in a line: Protein binding in monkey serum. Conditions: rhesus monkey, read-out: PB (converted). The class given is ADME, cell-free, Macaca mulatta.

`COc1cc(-n2cnc3cc(-c4ccc(Cl)cc4)sc3c2=O)ccc1OC[C@H](O)C1CC1`: the PB in data set [1] is 99.8%. Besides, the results for the fraction unbound in data set [2] and in data set [3] were 0.005 and 0.007, respectively.
